From patent US20250250252A1, “PIPERIDINYLBENZONITRILE DERIVATIVES AS INHIBITORS OF GLUTAMINYL-PEPTIDE CYCLOTRANSFERASE AND GLUTAMINYL-PEPTIDE CYCLOTRANSFERASE LIKE PROTEIN” (Boehringer Ingelheim International GmbH, priority 2024, published 2025)

What was measured:
QPCTL = QPCTL (Homo sapiens (Human), UniProt Q9NXS2); test: Assay A: biochemical QPCTL activity assay (MALDI-TOF MS); settings: read-out: Inhibition of QPCTL: IC50
Experimental: (§1) QPCT or QPCTL dependent conversion of N-terminal glutamine to pyroglutamate of CD47 was monitored via MALDI-TOF MS. Test compounds were dissolved in 100% DMSO and serially diluted into clear 1,536-well microtiter plates. Enzymatic reactions were set up in assay buffer containing 20 mM Tris pH 7.5, 0.1 mM TCEP, 0.01% BSA, and 0.001% Tween20. […] The plates were incubated for 10 min in a humidified incubator at 24° C. Subsequently, 2.5 μL of CD47 peptide substrate surrogate (^19[…]^33) was added to each well (final concentration: 10 μM for QPCTL/20 μM for QPCT). The plates were mixed for 30 sec at 1,000 rpm and subsequently incubated for 40 min in a humidified incubator at 24° C. […] The plates were sealed with an adhesive foil, mixed for 30 s at 1,000 rpm and stored at room temperature until preparation of the MALDI target plates. […] QPCT or QPCTL activity was monitored by calculating the ratio between product and internal standard signals followed by normalization to high (100% activity) and low (0% activity) controls. Determination of compound potencies was obtained by fitting the dose-response data to a four-parameter logistical equation.

QPCT = QPCT (Homo sapiens (Human), UniProt Q16769); test: Assay A: biochemical QPCT activity assay (MALDI-TOF MS); settings: read-out: Inhibition of QPCT: IC50
Experimental: as §1

[1] = test system: SIRPα signalling induced by Raji cells; test: Assay B: SIRPα signalling assay using Raji cells; type: cell-based; settings: Homo sapiens, read-out: Inhibition of SIRPα signalling induced by Raji cells: IC50
Experimental: Bioassay reagent 1 of the PathHunter Bioassay detection kit (DiscoverX 93-0001) was added to each well of the plate using a multichannel pipette followed by a 15 min incubation at room temperature. Afterwards bioassay reagent 2 was added followed by 60 min incubation at room temperature (incubation in the dark).
(§2) The analysis of the data was performed using the luminescence signal generated by betagalactosidase in the PathHunter reporter cell line. The luminescence measurement was done using a Pherastar Multi-Mode Reader.

[2] = test system: SIRPα signalling induced by A549 cells; test: Assay B: SIRPα signalling assay using A549 cells; type: cell-based; settings: Homo sapiens, read-out: Inhibition of SIRPα signalling induced by A549 cells: IC50
Experimental: Two cell types are independently used: the Raji cell line (lymphoblast-like human cell line derived from B lymphocytes from a Burkitt's lymphoma patient in 1963) and A549 cells (adenocarcinomic human alveolar basal epithelial cells).
Test compounds were dissolved in 100% DMSO and serially diluted into a white 384-well microtiter cell culture plate (PerkinElmer #60076780 in case of Raji assay; PDL-coated plates Greiner #781945 in case of A549 assay). 5000 Raji cells (ATCC #CC86) or 5000 A549 cells (ATCC #CCL-185) in Assay Complete Cell Plating reagent 30 (DiscoverX 93-0563R30B) were added per well. The assay plate was incubated for 48 h at 37° C., 95% humidity and 5% CO2. 15000 reporter cells (Jurkat PathHunter SIRPαV1, DiscoverX #93-1135C19) were added to each well, and the plate was incubated for 5 h at 37° C., 95% humidity and 5% CO2. Bioassay reagent 1 of the PathHunter Bioassay detection kit (DiscoverX 93-0001) was added to each well of the plate using a multichannel pipette followed by a 15 min incubation at room temperature. Afterwards bioassay reagent 2 was added followed by 60 min incubation at room temperature (incubation in the dark).
as §2, with “Reader. Dose-response curves & IC50 data were calculated with 4-parameter sigmoidal dose response formula.” for “Reader.”

[3] = Assay C: Permeability in CACO-2 cells; type: in vitro ADME; settings: human, Assay C; for efflux ratio: Caco-2, pH 7.2, permeability B-A/permeability A-B, read-out: Efflux Ratio; for Papp A→B: pH 7.2, CACO-2 cells
Experimental: Caco-2 cells (1-2×10^5 cells/1 cm^2 area) are seeded on filter inserts (Costar transwell polycarbonate or PET filters, 0.4 μm pore size) and cultured (DMEM) for 10 to 25 days. Compounds are dissolved in appropriate solvent (like DMSO, 1-20 mM stock solutions). […] The transport solution (TL) is applied to the apical or basolateral donor side for measuring A-B or B-A permeability (3 filter replicates), respectively. Samples are collected at the start and end of experiment from the donor and at various time intervals for up to 2 hours also from the receiver side for concentration measurement by HPLC-MS/MS or scintillation counting. Sampled receiver volumes are replaced with fresh receiver solution.
Efflux ratio (ER)=permeability B-A/permeability A-B

CYP3A4 mRNA = test: Assay D: CYP induction screening assay in primary human hepatocytes; type: in vitro ADME; settings: 48 h
Experimental: Cryopreserved plateable human hepatocytes (single donor, BioIVT) were thawed and plated in Collagen-I coated 96-well-plates at a cell density of 0.07 million cells per well.
After a 6 h attachment period, the seeding medium was replaced by serum-free William's medium E supplemented with Matrigel (0.25 mg/ml) and allowed to recover overnight. 24 h post-seeding, serum-free Williams E medium containing the test compound at a final concentration of 10 μM and a final DMSO content of 0.1% and 0.1% DMSO (solvents treated control), respectively, was added to predefined wells. Exposure solutions were renewed after 24 h.
After 48 h of treatment in total, the effect of the test compounds on CYP3A4 mRNA expression was assessed using the QuantiGene Plex Gene Expression Assay. Hepatocytes were lysed and total RNA was extracted using the QuantiGene Sample Processing Kit according to the instructions of the manufacturer.
mRNA quantification was conducted using a customized QuantiGene Plex Panel to analyse CYP3A4 and the housekeeper genes RPL32, EIF4E2 and GUSB according to the instructions of the manufacturer and measured on a Luminex™ instrument. Signal was reported as median fluorescence intensity (MFI), which is proportional to the number of target RNA molecules present in the sample.
For calculation of CYP3A4 mRNA induction, the signal for CYP3A4 was normalized against the geometric mean of the signal obtained for the housekeeper genes for hepatocytes exposed to test compounds in relation to solvent-treated samples according to the following equation:
n-fold induction=(MFI CYP3A4 (treated)/Xgeo MFI (RPL32,EIF4E2,GUSB))/(MFI CYP3A4 (solvent control)/Xgeo MFI (RPL32,EIF4E2,GUSB))

murine hepatocytes = test: Assay E: Stability in murine hepatocytes; type: in vitro ADME, mouse; settings: 1 μM
Experimental: The metabolic degradation of the test compound is assayed in a murine hepatocyte suspension.
Murine hepatocytes (typically cryopreserved) are incubated in an appropriate buffer system (e.g. Dulbecco's modified eagle medium plus 3.5 μg glucagon/500 mL, 2.5 mg insulin/500 mL and 3.75 mg/500 mL hydrocortison) containing 5% species serum.
Following a (typically) 30 min preincubation in an incubator (37° C., 10% CO2) 5 μl of test compound solution (80 μM; from 2 mM in DMSO stock solution diluted 1:25 with medium) are added into 395 μl hepatocyte suspension (cell density in the range 0.25-5 Mio cells/mL, typically 1 Mio cells/mL; final concentration of test compound 1 μM, final DMSO concentration 0.05%).
The cells are incubated for six hours (incubator, orbital shaker) and samples (2 μl) are taken at 0, 0.5, 1, 2, 4 and 6 hours. Samples are transferred into acetonitrile and pelleted by centrifugation (5 min). The supernatant is transferred to a new 96-deepwell plate, evaporated under nitrogen and resuspended.
CLint is calculated as follows CL_[…]=Dose/AUC=(C0/CD)/(AUD+clast/k)×1000/60. C0: initial concentration in the incubation [μM], CD: cell density of vital cells [10e6cells/mL], AUD: area under the data [μM×h], clast: concentration of last data point [μM], k: slope of the regression line for parent decline [h−1].
The calculated in vitro hepatic intrinsic clearance can be scaled up to the intrinsic in vivo hepatic Clearance and used to predict hepatic in vivo blood clearance (CL) by the use of a liver model (well stirred model).
CL_[…]_INVIVO[ml/min/kg]=(CL_[…][μL/min/10e6cells]×hepatocellularity[10e6cells/g liver]×liver factor[g/kg bodyweight])/1000
CL[ml/min/kg]=CL_[…]_INVIVO[ml/min/kg]×hepatic blood flow[ml/min/kg]/(CL_[…]_INVIVO[ml/min/kg]+hepatic blood flow[ml/min/kg])
Hepatocellularity,mouse:120×10e6cells/g liver
Liver factor,mouse:55 g/kg bodyweight
Blood flow,mouse:90 ml/(min×kg)

Chain of QPCT (Q16769 29-361): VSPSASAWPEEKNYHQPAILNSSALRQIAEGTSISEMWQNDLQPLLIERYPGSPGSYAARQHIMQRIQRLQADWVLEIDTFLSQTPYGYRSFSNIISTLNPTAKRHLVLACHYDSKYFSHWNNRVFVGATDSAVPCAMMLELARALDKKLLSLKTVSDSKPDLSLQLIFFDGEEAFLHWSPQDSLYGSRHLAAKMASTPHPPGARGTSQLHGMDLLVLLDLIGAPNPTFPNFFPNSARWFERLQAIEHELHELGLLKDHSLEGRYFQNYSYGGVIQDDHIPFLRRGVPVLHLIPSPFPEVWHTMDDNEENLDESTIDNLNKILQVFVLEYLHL
Chain of QPCTL (Q9NXS2 whole entry): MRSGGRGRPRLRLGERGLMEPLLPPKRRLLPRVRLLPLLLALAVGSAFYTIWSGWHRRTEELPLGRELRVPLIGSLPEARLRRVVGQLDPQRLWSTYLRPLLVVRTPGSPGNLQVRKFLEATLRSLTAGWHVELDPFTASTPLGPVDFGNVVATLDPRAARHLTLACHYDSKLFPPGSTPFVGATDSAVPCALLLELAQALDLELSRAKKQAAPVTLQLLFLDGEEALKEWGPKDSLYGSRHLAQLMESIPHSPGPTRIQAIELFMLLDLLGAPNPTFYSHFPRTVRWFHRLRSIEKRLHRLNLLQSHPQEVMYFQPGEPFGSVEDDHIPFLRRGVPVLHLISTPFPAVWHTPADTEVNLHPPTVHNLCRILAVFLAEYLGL

Structure (SMILES)	IC50 (QPCTL) [nM]	IC50 (QPCT) [nM]	IC50 [1] [nM]	IC50 [2] [nM]	efflux ratio [3]	Papp A→B [3] [×10⁻⁶ cm/s]	n-fold induction of CYP3A4 at 10 μM (CYP3A4 mRNA) [n-fold]	Mouse Hepatocyte Stability QH (murine hepatocytes) [%]
Cn1cnnc1C1(F)CCN(c2c(C#N)cc(-c3ccnnc3)cc2-c2ccc(F)nc2)CC1 [Example 8]	2	3	267	651	20.3	0.7	0.9	20
Cc1nn(C)cc1-c1cc(C#N)c(N2CCC(F)(c3nncn3C)CC2)c(-c2ccc(F)nc2)c1 [Example 4]	2	3	90	26	8.8	5	2.0	21
Cn1cnnc1C1(F)CCN(c2c(C#N)cc(C(C)(C)O)cc2-c2ccc(F)nc2)CC1 [Example 1]	1	1	26	88	11.9	4.2	2.2	23
Cn1cc(-c2ccc(-c3ccc(F)nc3)c(N3CCC(c4nncn4C)CC3)c2C#N)cn1 [Compound 35, reference compound]	2	4	28	9	12.2	4.9	3.0	16
Cc1nn(C)c(C)c1-c1cc(C#N)c(N2CCC(F)(c3nncn3C)CC2)c(-c2ccc(F)nc2)c1 [Example 3]	4	5	330	45	7.8	11	1.7	25
Cc1ncc(-c2cc(C#N)c(N3CCC(F)(c4nncn4C)CC3)c(-c3ccc(F)nc3)c2)o1 [Example 2]	2	4	180	36	3.3	26	1.6	15
Cn1cnnc1C1(F)CCN(c2c(C#N)cc(-c3cccnc3)cc2-c2ccc(F)nc2)CC1 [Example 6]	3	4	139	33	4.6	19	1.8	35
Cn1cnnc1C1(F)CCN(c2c(C#N)cc(-c3cnc(C(F)(F)F)nc3)cc2-c2ccc(F)nc2)CC1 [Example 9]	3	6	108	67	5.2	4.8	1.4	20
Cn1cnnc1C1CCN(c2c(-c3ccc(F)nc3)ccc(-c3ccnc(N)c3)c2C#N)CC1 [Compound 44, reference compound]	1	5	121	67	47.9	0.5	1.0	65
Cn1cc(-c2cc(C#N)c(N3CCC(F)(c4nncn4C)CC3)c(-c3ccc(F)nc3)c2)cn1 [Example 5]	2	2	52	25	6.7	5.4	7.7	<12
Cc1ncc(-c2cc(C#N)c(N3CCC(F)(c4nncn4C)CC3)c(-c3ccc(F)nc3)c2)cn1 [Example 7]	3	4	100	37	7.9	4.8	0.7	48
